Results published in patent US20140350273A1, “PEDIATRIC USES OF CABAZITAXEL” (AVENTIS PHARMA S.A., priority 2012, published 2014).
Where two headings read alike, the source gives them in different places.

Test system: human rhabdomyosarcoma RH-30
Type: in vivo
Conditions: for Average body weight change in % per mouse at nadir / Drug death (Day of death) / Regressions Complete / Regressions Partial / Tumor free survivors at day 120 / day of nadir / Biological interpretation / ΔT/ΔC in % (day 27): 18
Method: This efficacy may be quantified, for example, as changes in tumor volume for each treated (T) and control (C) group, which are calculated for each animal and each day by subtracting the tumor volume on the day of first treatment (staging day) from the tumor volume on the specified observation day. This allows calculating the tumor growth inhibition: ΔT/ΔC=(median delta T/median delta C)×100. Individual tumor volume changes from baseline are thereafter analyzed by a non-parametric two-way ANOVA-TYPE (with factors: group and repeated days) followed by a post-hoc contrasts analysis, with Bonferroni-Holm adjustment for multiplicity, comparing all treated groups to the control group. […] A probability less than 5% (p<0.05) was considered as significant.
Based on the National Cancer Institute (NCl) standards, a ΔT/ΔC≦40% is the minimal level required to declare activity.
The tumor doubling time (in days; Td) was estimated from the plot of the log linear growth of the control group tumors in exponential growth (100 to 1000 mm^3 range) [T. H. Corbett et al., Cancer, 40: 2660-2680 (1977); F. M. Schabel et al., Cancer Drug Development, Part B, Methods in Cancer Research, 17: 3-51, New York, Academic Press Inc. (1979)].
This efficacy may also be quantified by the number of tumor regressions observed after therapy. Individual mice reporting a tumor volume ≦50% of the Day 0 measurement for two consecutive measurements over a seven day period were considered partial responders (PR). Individual mice lacking palpable tumors (<4×4 mm^2 for two consecutive measurements over a seven day period) were classified as complete responders (CR); a CR that persisted until study completion was considered a tumor-free survivor (TFS).
The animals subjected to the experiment are subcutaneously grafted unilaterally with approximately 30 mg of a tumor fragment on day 0. The animals are implanted with a human tumor xenografted in immunocompromized mice. Several days post tumor implantation, mice are randomized according to their body weight to the different groups of treatments and controls. The animals are observed every day. […] The groups are then weighed once or twice a week until the end of the trial.
The tumors are measured 1 to 5 times a week, depending on the tumor doubling time, until the tumor reaches approximately 1,000 mm^3, or until the animal dies (if this occurs before the tumor reaches 1,000 mm^3). The animals are necropsied immediately after euthanasia or death.
The selected tumor model was a human rhabdomyosarcoma RH-30, xenografted in SCID mice [Douglass E C, et al. Cytogenet Cell Genet. 1987; 45(3-4):14855.].
Treatment solutions were prepared first by mixing 1 volume of ethanolic stock solution and 1 volume of polysorbate 80, then by adding 18 volumes of glucose 5% in water.

[1] = 3.5 mg/kg per injection (total 7.0) IV days 14
[2] = 3.5 mg/kg per injection (total 7.0) IV days 14, listed as DOCETAXEL
[3] = 3.5 mg/kg per injection (total 7.0) IV days 14, listed as docetaxel
[4] = 5.6 mg/kg per injection (total 11.2) IV days 14
[5] = 5.6 mg/kg per injection (total 11.2) IV days 14, listed as DOCETAXEL
[6] = 9.0 mg/kg per injection (total 18) IV days 14
[7] = 9.0 mg/kg per injection (total 18) IV days 14, listed as DOCETAXEL
[8] = 14.5 mg/kg per injection (total 29) IV days 14
[9] = 14.5 mg/kg per injection (total 29) IV days 14, listed as DOCETAXEL
[10] = 14.5 mg/kg per injection (total 29) IV days 14, listed as docetaxel

Compound: CC(=O)O[C@@]12CO[C@@H]1C[C@H](O)[C@@]1(C)C(=O)[C@H](O)C3=C(C)[C@@H](OC(=O)[C@H](O)[C@@H](NC(=O)OC(C)(C)C)c4ccccc4)C[C@@](O)([C@@H](OC(=O)c4ccccc4)[C@H]21)C3(C)C [Docetaxel, docetaxel]
- Average body weight change in % per mouse at nadir [1]: −1.8%
- Drug death (Day of death) [1]: 0/6
- Regressions Complete [1]: 0/6
- Regressions Partial [1]: 0/6
- Tumor free survivors at day 120 [1]: 0/6
- day of nadir [1]: (15) day
- Biological interpretation [2]: Inactive
- ΔT/ΔC in % (day 27) [2]: 77%
- Biological interpretation [3]: inactive
- ΔT/ΔC in % (day 27) [3]: > 40%
- Tumor volume changes from baseline: Median (nMad) (3.5 mg/kg, day 19): 477
- Tumor volume changes from baseline: Median (nMad) (3.5 mg/kg, day 20): 475
- Tumor volume changes from baseline: Median (nMad) (3.5 mg/kg, day 22): 495.5
- Tumor volume changes from baseline: Median (nMad) (3.5 mg/kg, day 25): 621.5
- Tumor volume changes from baseline: Median (nMad) (3.5 mg/kg, day 27): 736
- Tumor volume changes from baseline: Median (nMad) (3.5 mg/kg, day 29): 905.5
- Average body weight change in % per mouse at nadir [4]: −12.1%
- Drug death (Day of death) [4]: 0/6
- Regressions Complete [4]: 0/6
- Regressions Partial [4]: 4/6
- Tumor free survivors at day 120 [4]: 0/6
- day of nadir [4]: (25) day
- Biological interpretation [5]: Highly
- ΔT/ΔC in % (day 27) [5]: <0%
- Biological interpretation (5.6 mg/kg per injection (total 11.2) IV days 14, listed as docetaxel): highly active
- Tumor volume changes from baseline: Median (nMad) (5.6 mg/kg, day 18): 218 (84.5)
- Tumor volume changes from baseline: Median (nMad) (5.6 mg/kg, day 19): 289 (57.1)
- Tumor volume changes from baseline: Median (nMad) (5.6 mg/kg, day 20): 409.5
- Tumor volume changes from baseline: Median (nMad) (5.6 mg/kg, day 22): 405.5
- Tumor volume changes from baseline: Median (nMad) (5.6 mg/kg, day 25): −30.5
- Tumor volume changes from baseline: Median (nMad) (5.6 mg/kg, day 29): −47 (89.7)
- Tumor volume changes from baseline: Median (nMad) (5.6 mg/kg, day 33): 67 (262.4)
- Tumor volume changes from baseline: Median (nMad) (5.6 mg/kg, day 39): 454.5
- Tumor volume changes from baseline: Median (nMad) (5.6 mg/kg, day 41): 712
- Tumor volume changes from baseline: Median (nMad) (5.6 mg/kg, day 43): 1039.5
- Tumor volume changes from baseline: Median (nMad) (5.6 mg/kg, day 35): 129
- Average body weight change in % per mouse at nadir [6]: −11.2%
- Drug death (Day of death) [6]: 0/6
- Regressions Complete [6]: 0/6
- Regressions Partial [6]: 2/6
- Tumor free survivors at day 120 [6]: 0/6
- day of nadir [6]: (25) day
- Biological interpretation [7]: Highly
- ΔT/ΔC in % (day 27) [7]: <0%
- Biological interpretation (9.0 mg/kg per injection (total 18) IV days 14, listed as docetaxel): highly active
- Tumor volume changes from baseline: Median (nMad) (9 mg/kg, day 18): 202 (98.6)
- Tumor volume changes from baseline: Median (nMad) (9 mg/kg, day 19): 202 (71.9)
- Tumor volume changes from baseline: Median (nMad) (9 mg/kg, day 20): 325
- Tumor volume changes from baseline: Median (nMad) (9 mg/kg, day 22): 290.5
- Tumor volume changes from baseline: Median (nMad) (9 mg/kg, day 25): 115.5
- Tumor volume changes from baseline: Median (nMad) (9 mg/kg, day 29): 119.5
- Tumor volume changes from baseline: Median (nMad) (9 mg/kg, day 33): 272
- Tumor volume changes from baseline: Median (nMad) (9 mg/kg, day 39): 676
- Tumor volume changes from baseline: Median (nMad) (9 mg/kg, day 41): 904.5
- Tumor volume changes from baseline: Median (nMad) (9 mg/kg, day 43): 909
- Average body weight change in % per mouse at nadir [8]: −17.6%
- Drug death (Day of death) [8]: 0/6
- Regressions Complete [8]: 3/6
- Regressions Partial [8]: 5/6
- day of nadir [8]: (27) day
- ΔT/ΔC in % (day 27) [8]: 1%
- Biological interpretation [9]: Very
- Tumor free survivors at day 120 [9]: 0/6
- Biological interpretation [10]: very active
- Tumor free survivors at day 120 [10]: without TFS
- Tumor volume changes from baseline: Median (nMad) (14.5 mg/kg, day 18): 166.5
- Tumor volume changes from baseline: Median (nMad) (14.5 mg/kg, day 19): 195 (83)
- Tumor volume changes from baseline: Median (nMad) (14.5 mg/kg, day 25): 154.5
- Tumor volume changes from baseline: Median (nMad) (14.5 mg/kg, day 27): 13 (67.5)
- Tumor volume changes from baseline: Median (nMad) (14.5 mg/kg, day 29): 87 (100.8)
- Tumor volume changes from baseline: Median (nMad) (14.5 mg/kg, day 33): 17 (111.2)
- Tumor volume changes from baseline: Median (nMad) (14.5 mg/kg, day 46): 18.5
- Tumor volume changes from baseline: Median (nMad) (14.5 mg/kg, day 50): 485
- Tumor volume changes from baseline: Median (nMad) (14.5 mg/kg, day 35): −80 (63.8)
- Tumor volume changes from baseline: Median (nMad) (14.5 mg/kg, day 39): −112
- Tumor volume changes from baseline: Median (nMad) (14.5 mg/kg, day 41): −96 (78.6)
- Tumor volume changes from baseline: Median (nMad) (14.5 mg/kg, day 43): −72.5
